# Source: PMC9180926, “Discovery of Novel 3-Hydroxyquinazoline-2,4(1H,3H)-Dione Derivatives: A Series of Metal Ion Chelators with Potent Anti-HCV Activities” (International Journal of Molecular Sciences, 2022)
# Legend:
# [1] = test system: HCV 1b replicon cells (Huh-7.5.1); experiment: Anti-HCV assay, HCV 1b replicon cells with luciferase reporter; format: cell-based, hepatitis C virus (HCV) subtype 1b; conditions: Hepatitis C virus, HCV 1b replicon cells
# [2] = Metal ion chelation assay using UV-Vis spectrophotometry; format: physicochemical
# From the text: The chelation rules of the 3-hydroxyquinazoline-2,4(1H,3H)-diones with magnesium ions were explored by UV-Vis spectrophotometry, which was widely used to study the binding properties of compounds with metal ions in vitro [56, 57, 58]. For the sake of eliminating the interference of heteroaryl groups on the determination of metal ion chelation, the representative compound 21e with phenyl group substituted at the C-7 position was selected to study its chelation ability with Mg^2+ under different conditions. […] This is probably because compound 21e mainly exists in the free molecular state with the N-hydroxyl group protonated in methanol, which is difficult to chelate with Mg^2+. Intriguingly, after the introduction of 5 mm NaOAc to the methanol solution containing 21e, the effect of MgCl2 on the absorbance of the system totally changed (Figure 5B). […] Remarkably, merely 20 μM MgCl2 was able to increase the absorbance by more than 0.5. […] A reasonable logic is that the addition of NaOAc raised the pH of the methanol solution, resulting in partial ionization of compound 21e at the N-hydroxyl group. Subsequently, 21e in the ionic state formed a chelation complex with Mg^2+, which increased the absorbance of the solution.
# With the aim of verifying whether 21e has the ability to chelate with Mg^2+ in the ionic state, we further investigated the influence of various concentrations of NaOAc on the differential UV-Vis spectra caused by the addition of MgCl2. […] Moreover, the magnitude of the variation in the spectrum is proportional to the concentration of NaOAc. […] The comparison between different UV-Vis spectra also verified that compound 21e could chelate with Mg^2+ in the N-hydroxyl deprotonated form rather than the free molecular state.
# 2 mL of methanol solution containing the components in the sample or control group (Table 4) was added to a quartz cuvette (BQ-114-2, Chongqing Xinweier Glass Co., Ltd., Chongqing, China). The absorbance at 200–400 nm was scanned by a UV-Vis spectrophotometer (Agilent Cary 60, Agilent Technologies, Santa Clara, CA, USA), and the blank methanol was used for baseline calibration. The absorbance of the control group was subtracted from that of the sample group at the corresponding wavelength to obtain the differential UV-Vis spectra, which were used to analyze the chelating property of the compound with Mg^2+.
compound,measurement,setting,value
"O=c1[nH]c2cc(-c3ccccc3)ccc2c(=O)n1O [21e, 3-Hydroxy-7-phenylquinazoline-2,4(1H,3H)-dione]",EC50,"[1]; Huh-7.5.1, 50% effective concentration, mean ± SD",3.2 ± 0.04 µM
same,inhibition at 10 µM,"[1]; Huh-7.5.1, 72 h, inhibitory rate at 10 μM, 72 h, read-out: HCV Inhibition 10 μM",78.1%
same,absorbance difference at 254 nm between control group and sample group,"[2]; 50 μM compound in methanol, no NaOAc, MgCl2 up to 640 μM",no more than 0.1
same,increase of absorbance at 254 nm,"[2]; 50 μM compound, 80 μM MgCl2, 200 μM to 5 mm NaOAc in methanol",0.8–1.2
same,increase of absorbance at 254 nm,"[2]; 50 μM compound, 5 mm NaOAc in methanol, 20 μM MgCl2",more than 0.5
same,Mg^2+ concentration at which absorbance change reaches equilibrium,"[2]; 50 μM compound, 5 mm NaOAc in methanol, 254 nm",about 400 μM
